Laboratory results taken from patent publication US12077503B2, “Substituted cyclic amides and their use as herbicides” (FMC CORPORATION, priority 2015, dated 2024).

Key:
Format in all cases: in vivo
[1] = tested on: ivy-leaved morning glory (Ipomoea hederacea); experiment: Test G Pre-Emergence Protocol; details: Ipomoea, pre-emergence, 312 h, evaluated after 13 days
Summary of the method: (§1)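 Glasshouse pre-emergence test: soil-sown seeds, sprayed after 1 d at 15.625, 62.5 or 250 g/ha. Conditions 24/16° C day/night, 14 h light, 65% humidity, watering twice daily. Rating 13 d post-spray (100 = total damage).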

[2] = tested on: redroot pigweed (Amaranthus retroflexus); experiment: Test G Pre-Emergence Protocol; details: Amaranthus retroflexus, pre-emergence, 312 h, evaluated after 13 days
Summary of the method: as §1

[3] = tested on: giant foxtail (Setaria faberi); experiment: Test G Pre-Emergence Protocol; details: Setaria faberi, pre-emergence, 312 h, evaluated after 13 days
Summary of the method: as §1

[4] = tested on: velvetleaf (Abutilon theophrasti); experiment: Test G Pre-Emergence Protocol; details: Abutilon theophrasti, pre-emergence, 312 h, evaluated after 13 days
Summary of the method: as §1

corn (Zea mays) [5] = experiment: Test G Pre-Emergence Protocol; details: Zea mays, pre-emergence, 312 h, evaluated after 13 days
Summary of the method: as §1

[6] = tested on: barnyardgrass (Echinochloa crus-galli); experiment: Test G Pre-Emergence Protocol; details: Echinochloa crus-galli, pre-emergence, 312 h, evaluated after 13 days
Summary of the method: as §1

[7] = tested on: ivy-leaved morning glory (Ipomoea hederacea); experiment: Test G Post-Emergence Protocol; details: Ipomoea, post-emergence, 312 h, read-out: Morningglory, Ivy-leaved damage rating
Summary of the method: (§2)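 Sow in soil; grow 8 d (24/16 °C, 14 h light, 65% humidity); spray 15.625/62.5/250 g/ha in acetone:water 50:50 + 0.5% Tween 20; grow on, water twice daily; score damage 0–100 at 13 d.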

[8] = tested on: redroot pigweed (Amaranthus retroflexus); experiment: Test G Post-Emergence Protocol; details: Amaranthus retroflexus, post-emergence, 312 h, read-out: Pigweed, Redroot damage rating
Summary of the method: as §2

[9] = tested on: giant foxtail (Setaria faberi); experiment: Test G Post-Emergence Protocol; details: Setaria faberi, post-emergence, 312 h, read-out: Foxtail, Giant damage rating
Summary of the method: as §2

[10] = tested on: velvetleaf (Abutilon theophrasti); experiment: Test G Post-Emergence Protocol; details: Abutilon theophrasti, post-emergence, 312 h, read-out: Velvetleaf damage rating
Summary of the method: as §2

corn (Zea mays) [11] = experiment: Test G Post-Emergence Protocol; details: Zea mays, post-emergence, 312 h, read-out: Corn damage rating
Summary of the method: as §2

[12] = tested on: barnyardgrass (Echinochloa crus-galli); experiment: Test G Post-Emergence Protocol; details: Echinochloa crus-galli, post-emergence, 312 h, read-out: Barnyardgrass damage rating
Summary of the method: as §2

[13] = 15.625 g ai/ha, evaluated after 13 days (100=total damage to plant; 0=no damage to plant)
[14] = 62.5 g ai/ha, evaluated after 13 days, 100=total damage to plant, 0=no damage to plant
[15] = 250 g ai/ha, evaluated after 13 days, 100=total damage to plant, 0=no damage to plant

CN1C[C@H](c2cccc(C(F)(F)F)c2)[C@@H](C(=O)Nc2cnccc2S(C)(=O)=O)C1=O (racemic) [Compound 1747]
pest or weed control at 15.625 g/ha ([1]; 15.625 g ai/ha, read-out: Morningglory, Ivy-leaved damage rating (100=total damage to plant; 0=no damage to plant)): 0% | pest or weed control at 62.5 g/ha ([1]; 62.5 g ai/ha, 100=total damage to plant, 0=no damage to plant, read-out: Morningglory, Ivy-leaved damage rating): 0% | pest or weed control at 250 g/ha ([1]; 250 g ai/ha, read-out: Morningglory, Ivy-leaved damage rating (100=total damage to plant; 0=no damage to plant)): 0% | pest or weed control at 15.625 g/ha ([2]; 15.625 g ai/ha, read-out: Pigweed, Redroot damage rating (100=total damage to plant; 0=no damage to plant)): 0% | pest or weed control at 62.5 g/ha ([2]; 62.5 g ai/ha, 100=total damage to plant, 0=no damage to plant, read-out: Pigweed, Redroot damage rating): 10% | pest or weed control at 250 g/ha ([2]; 250 g ai/ha, read-out: Pigweed, Redroot damage rating (100=total damage to plant; 0=no damage to plant)): 10% | pest or weed control at 15.625 g/ha ([3]; 15.625 g ai/ha, read-out: Foxtail, Giant damage rating (100=total damage to plant; 0=no damage to plant)): 0% | pest or weed control at 62.5 g/ha ([3]; 62.5 g ai/ha, 100=total damage to plant, 0=no damage to plant, read-out: Foxtail, Giant damage rating): 10% | pest or weed control at 250 g/ha ([3]; 250 g ai/ha, read-out: Foxtail, Giant damage rating (100=total damage to plant; 0=no damage to plant)): 70% | pest or weed control at 15.625 g/ha ([4]; 15.625 g ai/ha, read-out: Velvetleaf damage rating (100=total damage to plant; 0=no damage to plant)): 0% | pest or weed control at 62.5 g/ha ([4]; 62.5 g ai/ha, 100=total damage to plant, 0=no damage to plant, read-out: Velvetleaf damage rating): 0% | pest or weed control at 250 g/ha ([4]; 250 g ai/ha, read-out: Velvetleaf damage rating (100=total damage to plant; 0=no damage to plant)): 0% | plant injury at 15.625 g/ha (corn (Zea mays) [5]; 15.625 g ai/ha, read-out: Corn damage rating (100=total damage to plant; 0=no damage to plant)): 0% | plant injury at 62.5 g/ha (corn (Zea mays) [5]; 62.5 g ai/ha, 100=total damage to plant, 0=no damage to plant, read-out: Corn damage rating): 0% | plant injury at 250 g/ha (corn (Zea mays) [5]; 250 g ai/ha, read-out: Corn damage rating (100=total damage to plant; 0=no damage to plant)): 0% | pest or weed control at 15.625 g/ha ([6]; 15.625 g ai/ha, read-out: Barnyardgrass damage rating (100=total damage to plant; 0=no damage to plant)): 0% | pest or weed control at 62.5 g/ha ([6]; 62.5 g ai/ha, 100=total damage to plant, 0=no damage to plant, read-out: Barnyardgrass damage rating): 0% | pest or weed control at 250 g/ha ([6]; 250 g ai/ha, read-out: Barnyardgrass damage rating (100=total damage to plant; 0=no damage to plant)): 80% | pest or weed control at 15.625 g/ha [7, 13]: 0% | pest or weed control at 62.5 g/ha [7, 14]: 20% | pest or weed control at 250 g/ha [7, 15]: 50% | pest or weed control at 15.625 g/ha [8, 13]: 10% | pest or weed control at 62.5 g/ha [8, 14]: 20% | pest or weed control at 250 g/ha [8, 15]: 20% | pest or weed control at 15.625 g/ha [9, 13]: 10% | pest or weed control at 62.5 g/ha [9, 14]: 60% | pest or weed control at 250 g/ha [9, 15]: 80% | pest or weed control at 15.625 g/ha [10, 13]: 0% | pest or weed control at 62.5 g/ha [10, 14]: 0% | pest or weed control at 250 g/ha [10, 15]: 10% | plant injury at 15.625 g/ha (corn (Zea mays) [11]; [13]): 0% | plant injury at 62.5 g/ha (corn (Zea mays) [11]; [14]): 0% | plant injury at 250 g/ha (corn (Zea mays) [11]; [15]): 30% | pest or weed control at 15.625 g/ha [12, 13]: 0% | pest or weed control at 62.5 g/ha [12, 14]: 60% | pest or weed control at 250 g/ha [12, 15]: 80%
